Measured values reported in paper PMC4493641, “Enhancement of E. coli acyl-CoA synthetase FadD activity on medium chain fatty acids” (PeerJ, 2015).

T1: FadD (Escherichia coli, UniProt P69451)
T1 construct: full-length, C-terminal His6 tag kept, pETDuet-1 (TJF032), expressed in E. coli BL21*(DE3) delta-fadD, partially purified by Ni-NTA
T1 sequence (P69451 1-561): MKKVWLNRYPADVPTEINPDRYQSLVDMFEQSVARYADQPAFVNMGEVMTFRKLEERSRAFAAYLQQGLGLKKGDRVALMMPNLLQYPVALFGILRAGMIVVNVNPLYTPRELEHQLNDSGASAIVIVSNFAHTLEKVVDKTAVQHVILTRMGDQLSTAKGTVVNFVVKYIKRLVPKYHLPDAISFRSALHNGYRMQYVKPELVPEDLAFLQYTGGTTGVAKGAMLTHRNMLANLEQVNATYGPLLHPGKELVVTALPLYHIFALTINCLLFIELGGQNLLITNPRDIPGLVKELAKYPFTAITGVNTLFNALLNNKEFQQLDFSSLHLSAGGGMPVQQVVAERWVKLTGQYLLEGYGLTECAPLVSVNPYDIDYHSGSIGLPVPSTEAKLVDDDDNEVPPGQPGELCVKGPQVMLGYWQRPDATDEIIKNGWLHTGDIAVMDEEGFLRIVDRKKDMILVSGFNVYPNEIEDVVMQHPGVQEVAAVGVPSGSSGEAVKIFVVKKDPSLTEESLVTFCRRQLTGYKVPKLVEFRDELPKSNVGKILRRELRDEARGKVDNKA

B1: FadD (Escherichia coli K-12) (protein)
chain: T1 sequence (P69451 1-561)

How the values were obtained:
[1] = molecular target: T1, FadD; experiment: coupled AMP production assay (myokinase / pyruvate kinase / lactate dehydrogenase, NADH oxidation at […] nm); assay type: biochemical; settings: 2.5 mM ATP, 0.5 mM CoA, 8 mM MgCl2, 0.1% Triton X-100, pH 7.5, 30 °C; partially purified
[2] = substrate: CCCCCCCC(=O)O; experiment: purified protein; settings: 2.5 mM ATP, 0.5 mM CoA, 8 mM MgCl2, 0.1% Triton X-100, pH 7.5, 30 °C, partially purified

Molecule	Km [1]	Km [2]
CCCCCCCC/C=C\CCCCCCCC(=O)O [oleate]	Vmax (A) and Km (B) values for the indicated substrates	
B1		422 µM
